Measured values published in US9618524B2, “Method, composition, isolation and identification of a plaque particle and related biomarker” (Plaxgen Inc., priority 2012, dated 2017).

What was measured:
Assay in all cases: Mass spectroscopy proteomics, semi-quantitative binding affinity of serum proteins (plaqueproteome, Table 2)
Settings in all cases: higher number = stronger affinity
[1] = target: T1, alpha-synuclein plaque particles (Homo sapiens, UniProt P37840)
T1 construct: 140 amino acids polypeptide
Description: To prepare oligomers/aggregates of human alpha-synuclein (140 amino acids polypeptide), 1 mg of the recombinant alpha-synuclein protein was suspended in 1 mL of PBS and the sample was incubated at 37° C. for 2 hrs. After incubation, all the samples were centrifuged for 5 min. at 5000 rpm to remove precipitate, if any, and the supernatant containing oligomers/aggregates were used in vitro plaque particles formation assay. For detecting alpha-synuclein plaque particles Thioflavin S (Ex/Em=430 nm/550 nm) amyloid binding fluorescent dye (10 μg) was used.
Similarly, to isolate alpha-synuclein plaque particles, diluted plasma or serum samples obtained from AD subjects were used for incubation with alpha-synuclein plaque oligomers/aggregates. Each assay was performed in 1 mL reaction (800 μL of 50% plasma or serum) and 200 μL (30 μg) of the alpha-synuclein aggregates and the mixtures were incubated at 37° C. for 1 hr. To the mixture Thioflavin S dye (120 μg) was added and the sample was incubated for additional 30 min at 37° C. After the incubation, the mixture was directly used for sample acquisition using flow cytometer (FACS ARIA II, BD Biosciences, San Jose, Calif.). After initial detection of alpha-synuclein plaque particles, gates were drawn in the acquisition blot to separately sort and isolate fluorescently labeled alpha-synuclein particles.
(§1) For preparing trypsin digested peptide sequences, the isolated plaque particles were centrifuged at 10000 rpm for 5 min and the pellet containing plaque particles was resuspended in 100 μl PBS buffer. Stock solutions of digestion buffer (Ammonium Biocarbonate 50 mM), reducing buffer (DDT 100 mM) and alkylation buffer (lodoaceamide 100 mM) were prepared and stored at −20° C. for up to two months. For trypsin digestion, 100 μl of each plaque particles (2000 of Abeta-42, cholesterol, Tau and alpha-synuclein) were precipitated using cold acetone −80° C. by adding 4X's the volume. The samples were placed on dry ice for 10 min with intermittent vortex. Next, the samples were centrifuged at 4° C. at 10000 G for 10 min. Top layer of acetone was carefully removed from the tube with care not to disturb the plaque particles pellet. The samples were speed-vac for 10 min to ensure all acetone has been boiled away. The plaque particles pellet were reconstituted with 15 μl 8M Urea 100 mM Ammonium bicarbonate stock and 20 μl protease max solution. The protease max solution (Promega, Madison, Wis.) was prepared from stock by adding 60 μl 50 mM Ammonium bicarbonate and used for 3 solution digests (20 μl each). […] The tubes were incubated at 55° C. for 30 minutes. The tubes were then removed and brought to the room temperature followed by addition of 3.2 μl of 1M acrylamide and incubated at room temperature for 30 minutes. To the sample, 63 μL of 50 mM Ammonium bicarbonate was added for a final volume of 98 μl and 2 μl of trypsin (10 μg, Trypsin/Lys C Mix). After mixing the solution with pipet the samples were incubated at 37° C. overnight. After the overnight digest, the tryptic digest were quenched and acidified by adding 10 μl of 50% formic acid/water stock dilution. The samples were centrifuged at 10000 G for 2 minutes and purified using stage tip and used for MS/Mass analysis.
(§2) All MS/MS samples were analyzed using Sequest (Thermo Fisher Scientific, San Jose, Calif., USA; version 1.0). Sequest was set up to search the SUMS_uniprot_Human database (35847 entries) assuming the digestion enzyme strict trypsin. Sequest was searched with a fragment ion mass tolerance of 1.00 Da and a parent ion tolerance of 20 PPM. Propionamide of cysteine was specified in Sequest as a fixed modification. Oxidation of methionine and phospho of serine, threonine and tyrosine were specified in Sequest as variable modifications.
Scaffold (version Scaffold_4.2.1, Proteome Software Inc., Portland, Oreg.) was used to validate MS/MS based peptide and protein identifications.

[2] = system: Low density cholesterol (Chl small) plaque particles; parameters: species or system human
Description: (§3) The goal was to isolate plaque particles synthesized in the bio-fluids in a relatively pure form to enable their subsequent use for identification of components that contribute to the plaque formation. In order to isolate cholesterol plaque particles, the plasma or serum samples obtained from atherosclerotic subjects were first centrifuged at 5,000 rpm for 5 min and the supernatants were transferred to new centrifuge tubes. Next, the supernatants were diluted in PBS to make 50% of the serum and used for incubation with cholesterol oligomers/aggregates. Each assay was performed in 1 mL reaction (800 μL of 50% plasma or serum) and 200 μL (30 μg) of the Cholesterol aggregates and the mixtures were incubated at 37° C. for 1 hr After the incubation, the mixture was directly used for sample acquisition using flow cytometer (FACS ARIA II, BD Biosciences, San Jose, Calif.). […] In order to isolate these fractions, three sets of gates were drawn in the acquisition blot to separately sort and isolate High density or high complex cholesterol particles, Low density or low complex cholesterol particles and both High and low density cholesterol particles together.
as §1, §2
(§4) Scaffold (version Scaffold_4.2.1, Proteome Software Inc., Portland, Oreg.) was used to validate MS/MS based peptide and protein identifications. […] Protein probabilities were assigned by the Protein Prophet algorithm (Nesvizhskii, Al et al 2003).

[3] = system: High Density cholesterol (Chl Large) plaque particles; parameters: species or system human
Description: as §3, §1, §2, §4

[4] = target: T2, Abeta-42 plaque particles (Homo sapiens, UniProt P05067)
T2 construct: Abeta 1-42
Description: Next to isolate serum derived Abeta-42 plaque particles, the plasma or serum samples obtained from AD subjects were first centrifuged at 5,000 rpm for 5 min and the supernatants were transferred to new centrifuge tubes. Next, the supernatants were diluted in PBS to make 50% of the serum and plasma samples and used for incubation with Abeta-42 plaque oligomers/aggregates. Each assay was performed in 1 mL reaction (800 μL of 50% plasma or serum) and 200 μL (30 μg) of the Abeta-42 aggregates and the mixtures were incubated at 37° C. for 1 hr. To the mixture Thioflavin S dye (120 μg) was added and the sample was incubated for additional 30 min at 37° C. After the incubation, the mixture was directly used for sample acquisition using flow cytometer (FACS ARIA II, BD Biosciences, San Jose, Calif.). After initial detection of Abeta-42 plaque particles in the acquisition blot, gates were drawn in fluorescent dot blot to separately sort and isolate fluorescently labeled Abeta-42 particles.
as §1, §2
as §4, with “2003). […] Proteins sharing significant peptide evidence were grouped into clusters. Proteins were annotated with GO terms from NCBI (downloaded Jan. 17, 2014).” for “2003).”

[5] = system: Tau plaque particles; parameters: species or system human
Description: For Tau-74 (74-102) (Exon 3/Insert 2 domain) preparation, 1 mg of Tau-74 was suspended in 1 mL of PBS and the sample was incubated at 37° C. for 2 hrs. Similarly for preparing Tau-275 (275-305) (Repeat 2 domain) 1 mg of the peptide was suspended in 1 mL of PBS and the sample was incubated at 37° C. for 2 hrs. After incubation, all the samples were centrifuged for 5 min. at 5000 rpm to remove precipitate, if any, and the supernatant containing oligomers/aggregates were used for in vitro amyloid plaque particles formation assay. For detecting Tau plaque particles, Thioflavin S (Ex/Em=430 nm/550 nm) amyloid binding fluorescent dye (10 μg) was used in the assay.
Next, to isolate Tau plaque particles, as performed for Abeta-42 and Abeta-28 plaque particles isolation, diluted serum samples were used for incubation separately with Tau-45, Tau-74 and Tau-275 oligomers/aggregates. Each assay was performed in 1 mL reaction (800 μL of 50% plasma or serum) and 200 μL (30 μg) of each Tau aggregates and the mixtures were incubated at 37° C. for 1 hr. To the each mixture Thioflavin S dye (120 μg) was added and the sample was incubated for additional 30 min at 37° C. After the incubation, each sample was directly used for sample acquisition using flow cytometer (FACS ARIA II, BD Biosciences, San Jose, Calif.). After initial detection of Tau plaque particles, gates were drawn in the acquisition blot to separately sort and isolate fluorescently labeled Tau plaque particles.
as §1, §2

Cluster of Nucleolar RNA helicase 2
Semi-quantitative analysis of proteins binding to different plaque particles: Synuclein [1]: 0 | Semi-quantitative analysis of proteins binding to different plaque particles: Chl small [2]: 0 | Semi-quantitative analysis of proteins binding to different plaque particles: Chl Large [3]: 0 | Semi-quantitative analysis of proteins binding to different plaque particles: Abeta-42 [4]: 2 | Semi-quantitative analysis of proteins binding to different plaque particles: Tau [5]: 0

Ig lambda-6 chain C region
Semi-quantitative analysis of proteins binding to different plaque particles: Synuclein [1]: 6 | Semi-quantitative analysis of proteins binding to different plaque particles: Chl small [2]: 3 | Semi-quantitative analysis of proteins binding to different plaque particles: Chl Large [3]: 3 | Semi-quantitative analysis of proteins binding to different plaque particles: Abeta-42 [4]: 5 | Semi-quantitative analysis of proteins binding to different plaque particles: Tau [5]: 5

Ig kappa chain V-III region POM
Semi-quantitative analysis of proteins binding to different plaque particles: Synuclein [1]: 0 | Semi-quantitative analysis of proteins binding to different plaque particles: Chl small [2]: 1 | Semi-quantitative analysis of proteins binding to different plaque particles: Chl Large [3]: 1 | Semi-quantitative analysis of proteins binding to different plaque particles: Abeta-42 [4]: 0 | Semi-quantitative analysis of proteins binding to different plaque particles: Tau [5]: 2

Ig gamma-4 chain C region
Semi-quantitative analysis of proteins binding to different plaque particles: Synuclein [1]: 8 | Semi-quantitative analysis of proteins binding to different plaque particles: Chl small [2]: 11 | Semi-quantitative analysis of proteins binding to different plaque particles: Chl Large [3]: 7 | Semi-quantitative analysis of proteins binding to different plaque particles: Abeta-42 [4]: 7 | Semi-quantitative analysis of proteins binding to different plaque particles: Tau [5]: 11

Coagulation factor XII
Semi-quantitative analysis of proteins binding to different plaque particles: Synuclein [1]: 1 | Semi-quantitative analysis of proteins binding to different plaque particles: Chl small [2]: 0 | Semi-quantitative analysis of proteins binding to different plaque particles: Chl Large [3]: 0 | Semi-quantitative analysis of proteins binding to different plaque particles: Abeta-42 [4]: 0 | Semi-quantitative analysis of proteins binding to different plaque particles: Tau [5]: 1

Apolipoprotein C-III
Semi-quantitative analysis of proteins binding to different plaque particles: Synuclein [1]: 1 | Semi-quantitative analysis of proteins binding to different plaque particles: Chl small [2]: 4 | Semi-quantitative analysis of proteins binding to different plaque particles: Chl Large [3]: 4 | Semi-quantitative analysis of proteins binding to different plaque particles: Abeta-42 [4]: 4 | Semi-quantitative analysis of proteins binding to different plaque particles: Tau [5]: 5

Alpha-1-antitrypsin
Semi-quantitative analysis of proteins binding to different plaque particles: Synuclein [1]: 20 | Semi-quantitative analysis of proteins binding to different plaque particles: Chl small [2]: 21 | Semi-quantitative analysis of proteins binding to different plaque particles: Chl Large [3]: 22 | Semi-quantitative analysis of proteins binding to different plaque particles: Tau [5]: 28

Isoform 2 of Fibrinogen alpha chain
Semi-quantitative analysis of proteins binding to different plaque particles: Synuclein [1]: 0 | Semi-quantitative analysis of proteins binding to different plaque particles: Chl small [2]: 1 | Semi-quantitative analysis of proteins binding to different plaque particles: Chl Large [3]: 0 | Semi-quantitative analysis of proteins binding to different plaque particles: Abeta-42 [4]: 0 | Semi-quantitative analysis of proteins binding to different plaque particles: Tau [5]: 1

Cluster of Desmoplakin
Semi-quantitative analysis of proteins binding to different plaque particles: Synuclein [1]: 0 | Semi-quantitative analysis of proteins binding to different plaque particles: Chl small [2]: 0 | Semi-quantitative analysis of proteins binding to different plaque particles: Chl Large [3]: 0 | Semi-quantitative analysis of proteins binding to different plaque particles: Abeta-42 [4]: 12 | Semi-quantitative analysis of proteins binding to different plaque particles: Tau [5]: 0

Ig kappa chain V-III region NG9
Semi-quantitative analysis of proteins binding to different plaque particles: Synuclein [1]: 2 | Semi-quantitative analysis of proteins binding to different plaque particles: Chl small [2]: 1 | Semi-quantitative analysis of proteins binding to different plaque particles: Chl Large [3]: 2 | Semi-quantitative analysis of proteins binding to different plaque particles: Abeta-42 [4]: 0 | Semi-quantitative analysis of proteins binding to different plaque particles: Tau [5]: 3

Complement C1q subcomponent subunit C
Semi-quantitative analysis of proteins binding to different plaque particles: Synuclein [1]: 1 | Semi-quantitative analysis of proteins binding to different plaque particles: Chl small [2]: 1 | Semi-quantitative analysis of proteins binding to different plaque particles: Chl Large [3]: 1 | Semi-quantitative analysis of proteins binding to different plaque particles: Abeta-42 [4]: 0 | Semi-quantitative analysis of proteins binding to different plaque particles: Tau [5]: 2

Cluster of Histone H1.2
Semi-quantitative analysis of proteins binding to different plaque particles: Synuclein [1]: 0 | Semi-quantitative analysis of proteins binding to different plaque particles: Chl small [2]: 0 | Semi-quantitative analysis of proteins binding to different plaque particles: Chl Large [3]: 0 | Semi-quantitative analysis of proteins binding to different plaque particles: Abeta-42 [4]: 2 | Semi-quantitative analysis of proteins binding to different plaque particles: Tau [5]: 0

Cluster of Alpha-1-antitrypsin
Semi-quantitative analysis of proteins binding to different plaque particles: Synuclein [1]: 20 | Semi-quantitative analysis of proteins binding to different plaque particles: Chl small [2]: 21 | Semi-quantitative analysis of proteins binding to different plaque particles: Chl Large [3]: 22 | Semi-quantitative analysis of proteins binding to different plaque particles: Tau [5]: 28

Apolipoprotein E
Semi-quantitative analysis of proteins binding to different plaque particles: Synuclein [1]: 8 | Semi-quantitative analysis of proteins binding to different plaque particles: Chl small [2]: 9 | Semi-quantitative analysis of proteins binding to different plaque particles: Chl Large [3]: 7 | Semi-quantitative analysis of proteins binding to different plaque particles: Tau [5]: 13
